Results reported in patent US20140328809A1, “METHODS OF INDUCING CHONDROGENESIS IN MESENCHYMAL STEM CELLS USING SYNTHETIC TRITERPENOIDS” (TRUSTEES OF DARTMOUTH COLLEGE, priority 2011, published 2014).

Experiments:
SOX-9 = test: Quantitative RT-PCR analysis on calvaria: SOX-9; type: cell-based, mouse; conditions: 7 days of culture, normalized to control = 1.00
Method: (§1) All chemicals were from Sigma-Aldrich. Primers for RT-PCR were from Applied Biosystems. The isolation of calvaria was essentially performed as described previously (Garrett, 2003; Garret et al., 2003). The calvaria were cultured in Biggers, Gwatkins, Judah medium supplemented with 1 mg/mL of bovine serum albumin (Cohn fraction V), 100 U/mL each of penicillin/streptomycin, and 0.292 mg/mL of glutaimine. On Day 1, the calvaria were treated with CDDO-Im or CDDO-EA. On Day 4, the medium was replaced with fresh medium, again containing either CDDO-Im or CDDO-EA. On Day 7, the calvaria were collected and either stored at −80° C. for further RNA analysis or fixed in 10% buffered formalin for 24 h and transferred to 80% ethanol for histological analysis.
(§2) After 7 days of culture, RNA was isolated from the calvaria and quantitative RT-PCR analysis was performed for more than 15 different markers including: SOX9 (a transcription factor specific for cartilage), collagen type II (alpha 1), all three isoforms of TGF-β, BMPs 2 and 4, BMP receptor II, Smads 3, 4, 6, and 7, tissue inhibitors of metalloproteinases (TIMP-1 and TIMP-2), and matrix metalloproteinase-9 (MMP-9). […] Both triterpenoids are strong inhibitors of the expression of MMP-9; CDDO-EA (200 nM), caused almost 80% inhibition of the expression of this metalloproteinase, which is known to be involved in the degradation of cartilage (Shinoda et al., 2008).

Col II alpha1 = test: Quantitative RT-PCR analysis on calvaria: Col II alpha1; type: cell-based, mouse; conditions: 7 days of culture, normalized to control = 1.00
Method: as §1, §2

TGF-β1 = test: Quantitative RT-PCR analysis on calvaria: TGF-β1; type: cell-based, mouse; conditions: 7 days of culture, normalized to control = 1.00
Method: as §1, §2

TGF-β2 = test: Quantitative RT-PCR analysis on calvaria: TGF-β2; type: cell-based, mouse; conditions: 7 days of culture, normalized to control = 1.00
Method: as §1, §2

TGF-β3 = test: Quantitative RT-PCR analysis on calvaria: TGF-β3; type: cell-based, mouse; conditions: 7 days of culture, normalized to control = 1.00
Method: as §1, §2

BMP-2 = test: Quantitative RT-PCR analysis on calvaria: BMP-2; type: cell-based, mouse; conditions: 7 days of culture, normalized to control = 1.00
Method: as §1, §2

BMP-4 = test: Quantitative RT-PCR analysis on calvaria: BMP-4; type: cell-based, mouse; conditions: 7 days of culture, normalized to control = 1.00
Method: as §1, §2

BMPRII = test: Quantitative RT-PCR analysis on calvaria: BMPRII; type: cell-based, mouse; conditions: 7 days of culture, normalized to control = 1.00
Method: as §1, §2

Smad3 = test: Quantitative RT-PCR analysis on calvaria: Smad3; type: cell-based, mouse; conditions: 7 days of culture, normalized to control = 1.00
Method: as §1, §2

Smad4 = test: Quantitative RT-PCR analysis on calvaria: Smad4; type: cell-based, mouse; conditions: 7 days of culture, normalized to control = 1.00
Method: as §1, §2

Smad6 = test: Quantitative RT-PCR analysis on calvaria: Smad6; type: cell-based, mouse; conditions: 7 days of culture, normalized to control = 1.00
Method: as §1, §2

Smad7 = test: Quantitative RT-PCR analysis on calvaria: Smad7; type: cell-based, mouse; conditions: 7 days of culture, normalized to control = 1.00
Method: as §1, §2

TIMP-1 = test: Quantitative RT-PCR analysis on calvaria: TIMP-1; type: cell-based, mouse; conditions: 7 days of culture, normalized to control = 1.00
Method: as §1, §2

TIMP-2 = test: Quantitative RT-PCR analysis on calvaria: TIMP-2; type: cell-based, mouse; conditions: 7 days of culture, normalized to control = 1.00
Method: as §1, §2

MMP-9 = test: Quantitative RT-PCR analysis on calvaria: MMP-9; type: cell-based, mouse; conditions: for MMP-9 expression (quantitative RT-PCR): 7 days of culture, normalized to control = 1.00
Method: as §1, §2

newborn mouse calvaria = test: Histological analysis (toluidine blue) of chondrogenesis in newborn mouse calvarial organ cultures; type: cell-based; conditions: 200 nM, 7 days, FIG. 1a, at least 3 sets of replicate experiments
Method: as §1
(§3) After fixation for 24 h, the calvaria were decalcified in EDTA, embedded in paraffin, and cut into 4 μm sections. The sections were stained either with modified hematoxylin and eosin or with toluidine blue (1% in 70% ethanol for 20 min, followed by destaining in 70%, 90%, and 100% ethanol for 15 seconds), placed in xylene twice, and then mounted (Garret, 2003). Procedures for immunofluroescence were performed essentially as previously described (Medici et al., 2010). […]

[1] = system: collagen type II (COL2A1); test: Immunohistochemical analysis of collagen type II in calvaria; type: cell-based, mouse; conditions: 200 nM, FIG. 1b
Method: as §1, §3

SOX9 = test: Western blot of chondrocyte marker SOX9 in bone marrow-derived MSCs; type: cell-based, human; conditions: 100 nM for 7 days; MSCs in chondrogenic culture medium; not detectable in control
Method: (§4) Human bone marrow-derived stromal cells (ScienCell Research Laboratories), which contain a population of responsive mesenchymal stem cells, were grown in mesenchymal stem cell medium (ScienCell Research Laboratories). MSCs were serum-starved 24 hours prior to all experimental conditions. The synthesis of the synthetic triterpenoids, CDDO-Im and CDDO-EA, have been previously described (Sporn et al., 2011).
(§5) For directed chondrocytic differentiation, MSCs were grown in StemPro chondrogenic culture medium (Invitrogen) prepared by the technique of Kassem (2004), which is incorporated herein by reference. See also Medici et al. (2010), which is also incorporated herein by reference. CDDO-Im and CDDO-EA were added to the cultures at a concentration of 100 nM for 7 days. Western blot analysis was performed using the following antibodies at concentrations (and using protocols) recommended by the respective manufacturers: SOX9, COL2A1 (Santa Cruz Biotechnology), Aggrecan (Abcam), β-actin (Sigma-Aldrich). β-actin was used as a loading control. HRP-conjugated IgG TrueBlot reagents (eBioscience) were used at a dilution of 1:1000.

COL2A1 = test: Western blot of chondrocyte marker COL2A1 in bone marrow-derived MSCs; type: cell-based, human; conditions: 100 nM for 7 days; MSCs in chondrogenic culture medium; not detectable in control
Method: as §4, §5

Aggrecan = test: Western blot of chondrocyte marker Aggrecan in bone marrow-derived MSCs; type: cell-based, human; conditions: 100 nM for 7 days; MSCs in chondrogenic culture medium; not detectable in control
Method: as §4, §5

For `CCNC(=O)[C@]12CCC(C)(C)C[C@H]1[C@H]1C(=O)C=C3[C@@]4(C)C=C(C#N)C(=O)C(C)(C)[C@@H]4CC[C@@]3(C)[C@]1(C)CC2` [CDDO-EA, CDDO-Ethyl amide], the “SOX-9 expression (quantitative RT-PCR)” value (SOX-9; 50 nM) was 1.64 ± 0.17, the “SOX-9 expression (quantitative RT-PCR)” value (SOX-9; 200 nM) was 2.62 ± 0.33 and the “SOX-9 expression (quantitative RT-PCR)” value (SOX-9; 500 nM) was 3.12 ± 0.38. The “Col II alpha1 expression (quantitative RT-PCR)” value (from here on “Col II alpha1 expression”) (Col II alpha1; 50 nM) was 4.12 ± 1.78, the “Col II alpha1 expression” value (Col II alpha1; 200 nM) was 5.45 ± 1.13 and the “Col II alpha1 expression” value (Col II alpha1; 500 nM) was 3.18 ± 0.71. For the same molecule, the “TGF-β1 expression (quantitative RT-PCR)” value (TGF-β1; 50 nM) was 1.17 ± 0.09, the “TGF-β1 expression (quantitative RT-PCR)” value (TGF-β1; 200 nM) was 1.47 ± 0.24 and the “TGF-β1 expression (quantitative RT-PCR)” value (TGF-β1; 500 nM) was 1.74 ± 0.17. For the same molecule, the “TGF-β2 expression (quantitative RT-PCR)” value (TGF-β2; 50 nM) was 1.36 ± 0.13, the “TGF-β2 expression (quantitative RT-PCR)” value (TGF-β2; 200 nM) was 1.61 ± 0.11 and the “TGF-β2 expression (quantitative RT-PCR)” value (TGF-β2; 500 nM) was 1.88 ± 0.09. The “TGF-β3 expression (quantitative RT-PCR)” value (TGF-β3; 50 nM) was 1.39 ± 0.07, the “TGF-β3 expression (quantitative RT-PCR)” value (TGF-β3; 200 nM) was 1.56 ± 0.13 and the “TGF-β3 expression (quantitative RT-PCR)” value (TGF-β3; 500 nM) was 1.44 ± 0.11. The “BMP-2 expression (quantitative RT-PCR)” value (BMP-2; 50 nM) was 1.53 ± 0.20, the “BMP-2 expression (quantitative RT-PCR)” value (BMP-2; 200 nM) was 2.52 ± 0.29 and the “BMP-2 expression (quantitative RT-PCR)” value (BMP-2; 500 nM) was 5.66 ± 0.67. The “BMP-4 expression (quantitative RT-PCR)” value (BMP-4; 50 nM) was 1.28 ± 0.12, the “BMP-4 expression (quantitative RT-PCR)” value (BMP-4; 200 nM) was 1.47 ± 0.13 and the “BMP-4 expression (quantitative RT-PCR)” value (BMP-4; 500 nM) was 2.49 ± 0.35. The “BMPRII expression (quantitative RT-PCR)” value (BMPRII; 50 nM) was 1.50 ± 0.14, the “BMPRII expression (quantitative RT-PCR)” value (BMPRII; 200 nM) was 1.71 ± 0.19 and the “BMPRII expression (quantitative RT-PCR)” value (BMPRII; 500 nM) was 2.24 ± 0.22. The “Smad3 expression (quantitative RT-PCR)” value (Smad3; 50 nM) was 1.14 ± 0.12, the “Smad3 expression (quantitative RT-PCR)” value (Smad3; 200 nM) was 1.35 ± 0.07 and the “Smad3 expression (quantitative RT-PCR)” value (Smad3; 500 nM) was 1.93 ± 0.16. For the same molecule, the “Smad4 expression (quantitative RT-PCR)” value (Smad4; 50 nM) was 1.06 ± 0.03, the “Smad4 expression (quantitative RT-PCR)” value (Smad4; 200 nM) was 1.37 ± 0.12 and the “Smad4 expression (quantitative RT-PCR)” value (Smad4; 500 nM) was 1.89 ± 0.12. For the same molecule, the “Smad6 expression (quantitative RT-PCR)” value (Smad6; 50 nM) was 1.09 ± 0.04, the “Smad6 expression (quantitative RT-PCR)” value (Smad6; 200 nM) was 1.77 ± 0.24 and the “Smad6 expression (quantitative RT-PCR)” value (Smad6; 500 nM) was 2.85 ± 0.31. For the same molecule, the “Smad7 expression (quantitative RT-PCR)” value (Smad7; 50 nM) was 1.28 ± 0.10, the “Smad7 expression (quantitative RT-PCR)” value (Smad7; 200 nM) was 1.86 ± 0.19 and the “Smad7 expression (quantitative RT-PCR)” value (Smad7; 500 nM) was 3.06 ± 0.28. For the same molecule, the “TIMP-1 expression (quantitative RT-PCR)” value (TIMP-1; 50 nM) was 1.88 ± 0.34, the “TIMP-1 expression (quantitative RT-PCR)” value (TIMP-1; 200 nM) was 2.85 ± 0.38 and the “TIMP-1 expression (quantitative RT-PCR)” value (TIMP-1; 500 nM) was 4.65 ± 0.38. For the same molecule, the “TIMP-2 expression (quantitative RT-PCR)” value (TIMP-2; 50 nM) was 1.78 ± 0.18, the “TIMP-2 expression (quantitative RT-PCR)” value (TIMP-2; 200 nM) was 2.44 ± 0.31 and the “TIMP-2 expression (quantitative RT-PCR)” value (TIMP-2; 500 nM) was 4.09 ± 0.36. For the same molecule, the “MMP-9 expression (quantitative RT-PCR)” value (MMP-9; 50 nM) was 0.49 ± 0.09, the “MMP-9 expression (quantitative RT-PCR)” value (MMP-9; 200 nM) was 0.22 ± 0.03 and the “inhibition of the expression of MMP-9” value (MMP-9; 200 nM, RT-PCR) was about 80%. The “MMP-9 expression (quantitative RT-PCR)” value (MMP-9; 500 nM) was 0.19 ± 0.06, the “induction of chondrogenesis (metachromatic toluidine blue purple staining, proteoglycans)” value (newborn mouse calvaria) was “marked ability to induce chondrogenesis” and the “formation of collagen type II (COL2A1), red fluorescence” value [1] was “induce the formation of collagen type II”. For the same molecule, the “induction of SOX9 (Western blot)” value (SOX9) was “clear induction”, the “induction of COL2A1 (Western blot)” value (COL2A1) was “clear induction” and the “induction of Aggrecan (Western blot)” value (Aggrecan) was “clear induction”.
